Assay results reported in PubChem BioAssay AID1963834 (Molecular Pharmacology Branch, DTP, NCI, 2024).
pIC50: −log10 of the molar value.

Tested on: 873145-292-R-J1-PDC complex spheroid viability
Experiment: Anticancer human tumor 873145-292-R-J1-PDC patient-derived renal clear cell carcinoma cell line growth inhibition [POLQ]
Settings: for pIC50: curve of first compound; for viability, T/C: stronger effect = lower value; active means viability on the fitted dose curve at most 10% of control; inactive means the rest
How it was run: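 Growth inhibition in 3D: complex spheroids (tumor PDC, HUVEC, MSC) treated with POLQ inhibitor combinations; where Cmax unknown, highest tested concentration 10 microM, except SN-38 at 1 microM.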

[1] = second compound 0.0316 µM, first compound 0.0316 µM
[2] = second compound 0.0316 µM, first compound 0.1 µM
[3] = second compound 0.0316 µM, first compound 0.316 µM
[4] = second compound 0.0316 µM, first compound 1 µM
[5] = second compound 0.0316 µM, first compound 3.16 µM
[6] = second compound 0.0316 µM, first compound 10 µM
[7] = second compound 0.1 µM, first compound 0.0316 µM
[8] = second compound 0.1 µM, first compound 0.1 µM
[9] = second compound 0.1 µM, first compound 0.316 µM
[10] = second compound 0.1 µM, first compound 1 µM
[11] = second compound 0.1 µM, first compound 3.16 µM
[12] = second compound 0.1 µM, first compound 10 µM
[13] = second compound 0.316 µM, first compound 0.0316 µM
[14] = second compound 0.316 µM, first compound 0.1 µM
[15] = second compound 0.316 µM, first compound 0.316 µM
[16] = second compound 0.316 µM, first compound 1 µM
[17] = second compound 0.316 µM, first compound 3.16 µM
[18] = second compound 0.316 µM, first compound 10 µM
[19] = second compound 1 µM, first compound 0.0316 µM
[20] = second compound 1 µM, first compound 0.1 µM
[21] = second compound 1 µM, first compound 0.316 µM
[22] = second compound 1 µM, first compound 1 µM
[23] = second compound 1 µM, first compound 3.16 µM
[24] = second compound 1 µM, first compound 10 µM
[25] = second compound 3.16 µM, first compound 0.0316 µM
[26] = second compound 3.16 µM, first compound 0.1 µM
[27] = second compound 3.16 µM, first compound 0.316 µM
[28] = second compound 3.16 µM, first compound 1 µM
[29] = second compound 3.16 µM, first compound 3.16 µM
[30] = second compound 3.16 µM, first compound 10 µM
[31] = second compound 10 µM, first compound 0.0316 µM
[32] = second compound 10 µM, first compound 0.1 µM
[33] = second compound 10 µM, first compound 0.316 µM
[34] = second compound 10 µM, first compound 1 µM
[35] = second compound 10 µM, first compound 3.16 µM
[36] = second compound 10 µM, first compound 10 µM
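Further: spheroids exposed to compounds for 7 days before viability readout.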
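Wherever viability, T/C is given: luminescence signal used as surrogate for viable cell content; 100% = DMSO vehicle control viability.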

O=c1[nH]cc(F)c(=O)[nH]1 + Cc1cccc(N(C)C(=O)C2C(O)CCN2c2nc(C)cc(C(F)(F)F)c2C#N)c1
inactive: viability, T/C [1] 106% | viability, T/C [2] 104% | viability, T/C [3] 99.8% | viability, T/C [4] 102% | viability, T/C [5] 115% | viability, T/C [6] 93.3% | viability, T/C [7] 118% | viability, T/C [8] 101% | viability, T/C [9] 103% | viability, T/C [10] 109% | viability, T/C [11] 97.2% | viability, T/C [12] 100% | viability, T/C [13] 98.3% | viability, T/C [14] 106% | viability, T/C [15] 91.4% | viability, T/C [16] 92.4% | viability, T/C [17] 117% | viability, T/C [18] 102% | viability, T/C [19] 102% | viability, T/C [20] 113% | viability, T/C [21] 100% | viability, T/C [22] 95% | viability, T/C [23] 109% | viability, T/C [24] 96.8% | viability, T/C [25] 93.5% | viability, T/C [26] 101% | viability, T/C [27] 87.7% | viability, T/C [28] 92.6% | viability, T/C [29] 101% | viability, T/C [30] 104% | viability, T/C [31] 98.6% | viability, T/C [32] 92.9% | viability, T/C [33] 94.7% | viability, T/C [34] 98.4% | viability, T/C [35] 104% | viability, T/C [36] 92%
< 5.00: pIC50 (second compound 0.0316 µM) | pIC50 (second compound 0.1 µM) | pIC50 (second compound 0.316 µM) | pIC50 (second compound 1 µM) | pIC50 (second compound 3.16 µM) | pIC50 (second compound 10 µM)

C#Cc1c(F)ccc2cc(O)cc(-c3ncc4c(N5CC6CCC(C5)N6)nc(OCC56CCCN5CC(F)C6)nc4c3F)c12 (stereo not drawn) + Cc1cccc(N(C)C(=O)C2C(O)CCN2c2nc(C)cc(C(F)(F)F)c2C#N)c1
inactive: viability, T/C [1] 94.5% | viability, T/C [2] 112% | viability, T/C [3] 88% | viability, T/C [4] 91% | viability, T/C [5] 98% | viability, T/C [6] 88.8% | viability, T/C [7] 103% | viability, T/C [8] 97.4% | viability, T/C [9] 89.5% | viability, T/C [10] 89% | viability, T/C [11] 102% | viability, T/C [12] 92.1% | viability, T/C [13] 96% | viability, T/C [14] 94.6% | viability, T/C [15] 107% | viability, T/C [16] 92.1% | viability, T/C [17] 87.3% | viability, T/C [18] 90.7% | viability, T/C [19] 99.8% | viability, T/C [20] 89.2% | viability, T/C [21] 91.2% | viability, T/C [22] 93.7% | viability, T/C [23] 95.1% | viability, T/C [24] 88.8% | viability, T/C [25] 87.1% | viability, T/C [26] 84.5% | viability, T/C [27] 89.6% | viability, T/C [28] 95.9% | viability, T/C [29] 85.1% | viability, T/C [30] 89.6% | viability, T/C [31] 86.5% | viability, T/C [32] 95.8% | viability, T/C [33] 95.8% | viability, T/C [34] 94.4% | viability, T/C [35] 82.5% | viability, T/C [36] 86.9%
< 5.00: pIC50 (second compound 0.0316 µM) | pIC50 (second compound 0.1 µM) | pIC50 (second compound 0.316 µM) | pIC50 (second compound 1 µM) | pIC50 (second compound 3.16 µM) | pIC50 (second compound 10 µM)

CC1COCCN1c1cc(C2(O)CC3CCC(C2)O3)c2cnn(-c3ccn[nH]3)c2n1 (stereo not drawn) + Nc1ccc(C#CCN(C(=O)Cc2ncc(C(F)(F)F)cc2C(F)(F)F)c2ccc(F)cc2)nn1
5.77: pIC50 (second compound 1 µM)
5.62: pIC50 (second compound 0.0316 µM)
5.96: pIC50 (second compound 0.1 µM)
inactive: viability, T/C [1] 101% | viability, T/C [2] 84% | viability, T/C [3] 61.3% | viability, T/C [4] 52.8% | viability, T/C [5] 50.3% | viability, T/C [6] 47.6% | viability, T/C [7] 111% | viability, T/C [8] 81.9% | viability, T/C [9] 61.5% | viability, T/C [10] 48.1% | viability, T/C [11] 49.8% | viability, T/C [12] 40.9% | viability, T/C [13] 94.3% | viability, T/C [14] 79.4% | viability, T/C [15] 54.9% | viability, T/C [16] 50.4% | viability, T/C [17] 59.4% | viability, T/C [18] 45.6% | viability, T/C [19] 89.2% | viability, T/C [20] 72.2% | viability, T/C [21] 59.9% | viability, T/C [22] 50.2% | viability, T/C [23] 51.2% | viability, T/C [24] 42.4% | viability, T/C [25] 89.2% | viability, T/C [26] 81% | viability, T/C [27] 67.5% | viability, T/C [28] 53.2% | viability, T/C [29] 56.8% | viability, T/C [30] 46.9% | viability, T/C [31] 99.3% | viability, T/C [32] 94.5% | viability, T/C [33] 66% | viability, T/C [34] 57.1% | viability, T/C [35] 55.3% | viability, T/C [36] 48.2%
< 5.00: pIC50 (second compound 0.316 µM) | pIC50 (second compound 3.16 µM) | pIC50 (second compound 10 µM)

C=CC(=O)N1CCN(c2nc(=O)n(-c3c(C)ccnc3C(C)C)c3nc(-c4c(O)cccc4F)c(F)cc23)C(C)C1 (stereo not drawn) + COC1C(OC(N)=O)C(O)C(Oc2ccc3c(O)c(NC(=O)c4ccc(O)c(CC=C(C)C)c4)c(=O)oc3c2C)OC1(C)C
< 5.00: pIC50 (second compound 0.0316 µM) | pIC50 (second compound 0.1 µM) | pIC50 (second compound 0.316 µM) | pIC50 (second compound 1 µM) | pIC50 (second compound 3.16 µM) | pIC50 (second compound 10 µM)
inactive: viability, T/C [1] 102% | viability, T/C [2] 97.9% | viability, T/C [3] 110% | viability, T/C [4] 114% | viability, T/C [5] 119% | viability, T/C [6] 130% | viability, T/C [7] 98.7% | viability, T/C [8] 99.6% | viability, T/C [9] 91.5% | viability, T/C [10] 111% | viability, T/C [11] 114% | viability, T/C [12] 114% | viability, T/C [13] 102% | viability, T/C [14] 97% | viability, T/C [15] 118% | viability, T/C [16] 113% | viability, T/C [17] 138% | viability, T/C [18] 119% | viability, T/C [19] 94.5% | viability, T/C [20] 94% | viability, T/C [21] 105% | viability, T/C [22] 104% | viability, T/C [23] 120% | viability, T/C [24] 126% | viability, T/C [25] 92.4% | viability, T/C [26] 92.7% | viability, T/C [27] 105% | viability, T/C [28] 113% | viability, T/C [29] 126% | viability, T/C [30] 121% | viability, T/C [31] 99.7% | viability, T/C [32] 109% | viability, T/C [33] 113% | viability, T/C [34] 116% | viability, T/C [35] 111% | viability, T/C [36] 125%
